The text below walks through data of ChEMBL document CHEMBL1201862, “PubChem BioAssay data set” (2004).

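96-well plates; 48 h exposure; 5 concentrations. Endpoints by linear interpolation between flanking doses. Not reached: highest tested concentration assigned. Here, GI50 denotes the concentration required for 50% inhibition of growth.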 Calls of active or inactive are those of the source. Cut-off read from the data, not from the text of the source: active = GI50 up to about 1.1 µM and inactive = higher. A value given as a limit tells only on which side of the number the result lay.

Test systems include NCI/ADR-RES; UACC-257; PC-3; M14; OVCAR-3; OVCAR-4; A549; SF-268; 786-0; HOP-62; SNB-75; BT-549; SK-MEL-2; DU-145; NCI-H226; TK-10; CAKI-1; SNB-19; HL-60; LOX IMVI.
Common to all, as to assay: NCI anticancer screen, dose series, 48 h

In the case of `Fc1cccc(F)c1C(Nc1nncs1)Nc1nncs1`, the GI50 is > 100 µM (inactive) in the assay with NCI/ADR-RES; > 100 µM (inactive) in the assay on UACC-257; > 100 µM (inactive) in the assay on PC-3; 59.6 µM (inactive) in the assay on M14; > 100 µM (inactive) with OVCAR-3; > 100 µM (inactive) with OVCAR-4. Further, the GI50 with A549, in the assay on SF-268, in the assay with 786-0, with HOP-62, with SNB-75 and in the assay on BT-549 was > 100 µM (inactive) in each case. In addition, the GI50 in the assay with SK-MEL-2, in the assay with DU-145, with NCI-H226, with TK-10, in the assay with CAKI-1 and in the assay with SNB-19 was > 100 µM (inactive) throughout.
`O=C1CC(=O)NC(NN2C(=O)/C(=C/c3ccccc3)N=C2c2ccccc2)=N1`: the GI50 in the assay with NCI/ADR-RES, in the assay on UACC-257, in the assay on PC-3, in the assay on M14, in the assay with OVCAR-3 and in the assay on OVCAR-4 was > 100 µM (inactive) in each case. Besides, the GI50 in the assay with A549 was > 100 µM (inactive); in the assay on SF-268, > 100 µM (inactive); in the assay with 786-0 it was > 100 µM (inactive); in the assay with HOP-62, > 100 µM (inactive); with SNB-75, > 100 µM (inactive); in the assay with BT-549 it was 26.6 µM (inactive). Further, the GI50 in the assay on SK-MEL-2, with DU-145, with NCI-H226, in the assay with TK-10 and in the assay on CAKI-1 was > 100 µM (inactive) in each case.
`O=[N+]([O-])/C(C(Cl)=C(Cl)Cl)=C(/Cl)Sc1ccccc1`: the GI50 in the assay on NCI/ADR-RES is 1.08 µM (active); in the assay on UACC-257 it was 1.25 µM (inactive); with PC-3, 2.26 µM (inactive); with M14, 1.82 µM (inactive); with OVCAR-3, 2.05 µM (inactive); in the assay on OVCAR-4, 1.62 µM (inactive). Moreover, the GI50 in the assay on A549 is 3.6 µM (inactive); in the assay on SF-268, 2.29 µM (inactive); in the assay on 786-0, 1.31 µM (inactive); with HOP-62, 3.54 µM (inactive); in the assay on SNB-75, 15 µM (inactive); in the assay on SK-MEL-2, 13.3 µM (inactive). In addition, the GI50 in the assay on DU-145 was 3.32 µM (inactive); in the assay on NCI-H226 it was 7.76 µM (inactive); in the assay on HL-60, 0.139 µM (active); in the assay with TK-10, 2.67 µM (inactive); in the assay on CAKI-1, 2.51 µM (inactive); in the assay on SNB-19, 17.7 µM (inactive). The GI50 with LOX IMVI is 1.87 µM (inactive).
For `Clc1ccc(OCc2nnc(CCCCCCCCc3nnc(COc4ccc(Cl)cc4)o3)o2)cc1`, the GI50 was > 100 µM (inactive) in the assay with NCI/ADR-RES; > 100 µM (inactive) with UACC-257; > 100 µM (inactive) in the assay on PC-3; 89.7 µM (inactive) with M14; > 100 µM (inactive) with OVCAR-3; > 100 µM (inactive) in the assay on OVCAR-4. Besides, the GI50 is 72.1 µM (inactive) in the assay on A549; 32.3 µM (inactive) in the assay on SF-268; 31.8 µM (inactive) in the assay with 786-0; 68.2 µM (inactive) in the assay with SNB-75; > 100 µM (inactive) with BT-549; > 100 µM (inactive) in the assay on SK-MEL-2. For the same molecule, the GI50 in the assay on DU-145 is 68.7 µM (inactive); in the assay with NCI-H226 it was > 100 µM (inactive); with TK-10, > 100 µM (inactive); in the assay with CAKI-1 it was 39.7 µM (inactive); in the assay on SNB-19, 34.1 µM (inactive).
Regarding `CC(=O)OCC1OC(c2c(OC(C)=O)cc(C)c3c(=O)cc(/C(C(C)=O)=C(\C)O)oc23)C(OC(C)=O)C(OC(C)=O)C1OC(C)=O` (configuration not stated), the GI50 in the assay on NCI/ADR-RES, in the assay with UACC-257, in the assay on PC-3, with M14, with OVCAR-3 and with OVCAR-4 was > 100 µM (inactive) each time. For the same molecule, the GI50 with A549 was > 100 µM (inactive); in the assay with SF-268 it was 87.7 µM (inactive); with 786-0, > 100 µM (inactive); in the assay on HOP-62, > 100 µM (inactive); in the assay on SNB-75, 49.5 µM (inactive); with BT-549 it was > 100 µM (inactive). Also, the GI50 in the assay with SK-MEL-2, with DU-145, in the assay with NCI-H226, in the assay on HL-60, with TK-10 and with CAKI-1 was > 100 µM (inactive) each time. Further, in the assay on SNB-19, the GI50 is > 100 µM (inactive).
Regarding `O=C1/C(=C/c2ccc(Cl)cc2)N=C(c2ccccc2)N1c1nc2ccccc2s1`, the GI50 in the assay on NCI/ADR-RES is 34 µM (inactive); in the assay on UACC-257 it was 35.6 µM (inactive); in the assay on PC-3, 29.9 µM (inactive); in the assay with M14, 69.8 µM (inactive); in the assay on OVCAR-3 it was 38.5 µM (inactive); with OVCAR-4, 53.1 µM (inactive). The GI50 is 38.4 µM (inactive) in the assay on SF-268; > 100 µM (inactive) in the assay on 786-0; > 100 µM (inactive) in the assay with HOP-62; 77.3 µM (inactive) in the assay on SNB-75; 28.3 µM (inactive) with SK-MEL-2; 78.2 µM (inactive) in the assay with DU-145. The GI50 is 49.7 µM (inactive) with NCI-H226; 4.03 µM (inactive) in the assay on HL-60; 56.2 µM (inactive) in the assay with TK-10; 58.9 µM (inactive) in the assay with CAKI-1; 43.6 µM (inactive) with LOX IMVI.
Turning to `O=c1n(-c2ccccc2)c(=O)n2c(-c3ccccc3)c(-c3ccccc3)n12`, the GI50 with NCI/ADR-RES is > 100 µM (inactive); in the assay on UACC-257, > 100 µM (inactive); with PC-3 it was 77.8 µM (inactive); in the assay with M14 it was 52.1 µM (inactive); in the assay with OVCAR-3, > 100 µM (inactive); in the assay on OVCAR-4, > 100 µM (inactive). Besides, the GI50 with A549 is > 100 µM (inactive); with 786-0, 80.2 µM (inactive); with HOP-62, > 100 µM (inactive); in the assay with SNB-75, 76.9 µM (inactive); in the assay on BT-549 it was > 100 µM (inactive); in the assay on SK-MEL-2 it was > 100 µM (inactive). For the same molecule, the GI50 with NCI-H226 is > 100 µM (inactive); in the assay on HL-60, 33.4 µM (inactive); with TK-10, > 100 µM (inactive); with CAKI-1, > 100 µM (inactive); in the assay with SNB-19 it was > 100 µM (inactive); in the assay with LOX IMVI, 72.1 µM (inactive).
Turning to `S=c1[nH]c(=S)c2cc(Sc3ccc4[nH]c(=S)[nH]c(=S)c4c3)ccc2[nH]1`, the GI50 with NCI/ADR-RES was > 100 µM (inactive); in the assay on UACC-257, 43.3 µM (inactive); in the assay on PC-3, 52.5 µM (inactive); in the assay with M14 it was 66.7 µM (inactive); in the assay with OVCAR-3, 36.1 µM (inactive); in the assay on OVCAR-4, 23.2 µM (inactive). The GI50 in the assay with A549 is 59.7 µM (inactive); with SF-268, 24.2 µM (inactive); with 786-0, 21.5 µM (inactive); with SNB-75, 19.5 µM (inactive); with BT-549 it was 31.2 µM (inactive); with SK-MEL-2, 45.1 µM (inactive). Further, the GI50 with DU-145 was 62.4 µM (inactive); in the assay with NCI-H226, 20.4 µM (inactive); with HL-60, 20.8 µM (inactive); with TK-10, 25.1 µM (inactive); with CAKI-1, 36.6 µM (inactive); in the assay with SNB-19, 30.4 µM (inactive).
Regarding `CC(=O)c1c2c(cc3c1CC1(Cc4ccccc4C1=O)C3)CCC2` (configuration not stated), the GI50 was 14.5 µM (inactive) in the assay on NCI/ADR-RES; 17.9 µM (inactive) in the assay on UACC-257; 41.3 µM (inactive) in the assay with PC-3; 27.3 µM (inactive) with M14; 15.1 µM (inactive) in the assay with OVCAR-3; 75.2 µM (inactive) with OVCAR-4. The GI50 in the assay with A549 was 28.2 µM (inactive); with SF-268 it was 37.9 µM (inactive); in the assay with 786-0, 22.3 µM (inactive); in the assay with HOP-62, 30.4 µM (inactive); in the assay on SNB-75 it was 32 µM (inactive); in the assay on SK-MEL-2 it was 27.1 µM (inactive). The GI50 was 34.7 µM (inactive) in the assay on DU-145; 22.9 µM (inactive) with NCI-H226; 5.2 µM (inactive) in the assay on HL-60; 20.5 µM (inactive) in the assay on TK-10; 8.55 µM (inactive) in the assay on CAKI-1; 45.2 µM (inactive) with SNB-19. In the assay on LOX IMVI, the GI50 is 19.7 µM (inactive).
As for `NCCCCNCCCNC(=O)c1csc(-c2nc(CCN)sc2Cl)n1`, the GI50 with NCI/ADR-RES, with UACC-257, in the assay on PC-3, in the assay on M14, with OVCAR-3 and with A549 was > 100 µM (inactive) throughout. The GI50 in the assay with SF-268, in the assay with 786-0, with HOP-62, with SNB-75, with BT-549 and in the assay with DU-145 was > 100 µM (inactive) throughout. The GI50 with NCI-H226, in the assay on HL-60, in the assay on TK-10 and in the assay on SNB-19 was > 100 µM (inactive) in each case.
For the molecule `O=C(O)C1=C/C(=C(/c2ccccc2)c2cc(C(=O)O)c(O)c3ccccc23)c2ccccc2C1=O`, the GI50 in the assay on NCI/ADR-RES, in the assay on UACC-257, with PC-3, in the assay with M14, in the assay with OVCAR-3 and in the assay with OVCAR-4 was > 100 µM (inactive) throughout. Besides, the GI50 with A549, in the assay with SF-268, in the assay on 786-0, in the assay with HOP-62, in the assay on SNB-75 and with BT-549 was > 100 µM (inactive) each time. Moreover, the GI50 in the assay on SK-MEL-2 is > 100 µM (inactive); with DU-145 it was > 100 µM (inactive); in the assay on NCI-H226, > 100 µM (inactive); with HL-60, < 0.01 µM (active); in the assay on TK-10 it was > 100 µM (inactive); with CAKI-1, > 100 µM (inactive). For the same molecule, the GI50 with SNB-19 is > 100 µM (inactive).
